Usually AC50 stands for the concentration at which the activity in the assay is half-maximal. A word on the EC50: it is the concentration giving half of the maximal effect.

Structures are written as SMILES. Active and inactive are the calls of the source. Where only a bound is given, the exact number is not on record here.

Data set [1] addresses Cytochrome P450 2C19 (Homo sapiens, UniProt P33261). In words: Cytochrome panel assay with activity outcomes. Panel member name: p450-cyp2c19 Compounds with AC50 equal or less than 10 uM are considered active. The class given is functional.
For data set [2], the target named is Cytochrome P450 3A4 (Homo sapiens, UniProt P08684).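 Further: CYP3A4 tested as one member of a cytochrome P450 panel screen.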
Sequence of Cytochrome P450 3A4 (P08684 whole entry): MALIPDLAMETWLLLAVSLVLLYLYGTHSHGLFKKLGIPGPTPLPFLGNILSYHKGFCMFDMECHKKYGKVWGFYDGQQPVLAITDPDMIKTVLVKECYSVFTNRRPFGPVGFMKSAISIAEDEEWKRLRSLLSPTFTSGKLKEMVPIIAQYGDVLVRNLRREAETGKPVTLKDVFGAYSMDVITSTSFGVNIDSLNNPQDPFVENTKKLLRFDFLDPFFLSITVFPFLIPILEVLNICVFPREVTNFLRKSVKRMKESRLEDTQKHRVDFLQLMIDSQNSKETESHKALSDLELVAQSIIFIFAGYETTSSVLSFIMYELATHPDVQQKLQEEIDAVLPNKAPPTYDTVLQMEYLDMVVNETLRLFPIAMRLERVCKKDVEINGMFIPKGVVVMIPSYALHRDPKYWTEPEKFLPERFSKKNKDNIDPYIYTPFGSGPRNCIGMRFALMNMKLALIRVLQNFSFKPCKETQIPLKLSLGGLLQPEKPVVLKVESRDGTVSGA
For data set [3], the target named is Cytochrome P450 2D6 (Homo sapiens, UniProt P10635).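 Further: CYP2D6 member of a cytochrome P450 panel assay.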
Sequence of Cytochrome P450 2D6 (P10635 whole entry): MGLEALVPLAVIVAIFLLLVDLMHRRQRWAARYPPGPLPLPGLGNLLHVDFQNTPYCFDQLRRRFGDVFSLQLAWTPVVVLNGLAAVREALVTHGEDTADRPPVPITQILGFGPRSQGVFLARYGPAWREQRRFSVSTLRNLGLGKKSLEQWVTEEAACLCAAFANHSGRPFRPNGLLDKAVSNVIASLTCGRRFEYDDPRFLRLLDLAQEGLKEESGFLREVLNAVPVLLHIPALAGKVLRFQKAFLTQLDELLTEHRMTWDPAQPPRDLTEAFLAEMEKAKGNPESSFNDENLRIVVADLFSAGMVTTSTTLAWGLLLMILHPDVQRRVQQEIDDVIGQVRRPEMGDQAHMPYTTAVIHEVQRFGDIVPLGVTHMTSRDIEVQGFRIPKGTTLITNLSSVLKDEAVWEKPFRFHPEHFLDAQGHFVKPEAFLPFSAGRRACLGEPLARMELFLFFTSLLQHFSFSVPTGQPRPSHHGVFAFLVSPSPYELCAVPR
Data set [4] addresses Cytochrome P450 2C9 (Homo sapiens, UniProt P11712).
The nature of data set [5]: inhibitors of intracellular T. cruzi replication, confirmation, NIH3T3 host cells, beta-gal luminescence (AID 2044).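 Further: intracellular parasites grown in NIH/3T3 mouse fibroblasts as host cells; luminescent beta-galactosidase reporter signal from transgenic T. cruzi replicating inside host cells; inhibitors lower the luminescence signal.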 The format is functional, cell-based.
Data set [6] can be described thus: cytotoxicity toward NIH3T3 fibroblasts, dose response, counter-screen, cell-based, ATP luminescence, mouse fibroblasts (AID 2010).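 Further: cells exposed to compound for about 90 hours before reading.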 The format is functional. For orientation: A counterscreen serves to expose hits that act by an unwanted route or on another target.
Data set [7] concerns the target T1, Protein RecA (Mycobacterium tuberculosis, UniProt P9WHJ3).
T1 sequence (P9WHJ3 whole entry): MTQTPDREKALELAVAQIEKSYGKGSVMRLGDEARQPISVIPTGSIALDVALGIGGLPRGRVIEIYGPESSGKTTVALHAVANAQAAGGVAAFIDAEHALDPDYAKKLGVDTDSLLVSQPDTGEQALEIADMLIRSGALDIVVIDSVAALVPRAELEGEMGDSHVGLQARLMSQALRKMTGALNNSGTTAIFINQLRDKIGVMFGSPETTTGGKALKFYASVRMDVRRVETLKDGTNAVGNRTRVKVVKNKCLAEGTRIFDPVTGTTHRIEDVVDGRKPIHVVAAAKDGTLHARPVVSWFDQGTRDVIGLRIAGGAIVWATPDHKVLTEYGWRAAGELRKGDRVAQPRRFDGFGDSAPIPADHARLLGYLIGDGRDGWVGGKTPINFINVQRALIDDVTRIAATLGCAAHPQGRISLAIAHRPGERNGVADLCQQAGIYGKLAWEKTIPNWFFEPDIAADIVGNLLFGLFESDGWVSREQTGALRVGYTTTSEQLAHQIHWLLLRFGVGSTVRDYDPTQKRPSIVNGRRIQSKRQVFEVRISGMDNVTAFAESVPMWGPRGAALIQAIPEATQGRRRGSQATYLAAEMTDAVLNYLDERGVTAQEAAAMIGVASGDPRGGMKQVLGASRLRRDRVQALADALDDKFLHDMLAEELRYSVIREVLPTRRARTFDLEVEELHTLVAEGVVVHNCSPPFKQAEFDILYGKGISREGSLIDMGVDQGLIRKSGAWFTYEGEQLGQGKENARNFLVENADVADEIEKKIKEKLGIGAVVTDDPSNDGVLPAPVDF
Put plainly: Fluorescence Cell-Free Homogeneous Dose Retest to Identify Inhibitors of RecA-Intein Splicing Activity. [Related pubchem assays (depositor defined):AID2097, AID2223, AID489010, AID492950]. The format is functional.

Sequence of Cytochrome P450 2C9 (P11712 whole entry): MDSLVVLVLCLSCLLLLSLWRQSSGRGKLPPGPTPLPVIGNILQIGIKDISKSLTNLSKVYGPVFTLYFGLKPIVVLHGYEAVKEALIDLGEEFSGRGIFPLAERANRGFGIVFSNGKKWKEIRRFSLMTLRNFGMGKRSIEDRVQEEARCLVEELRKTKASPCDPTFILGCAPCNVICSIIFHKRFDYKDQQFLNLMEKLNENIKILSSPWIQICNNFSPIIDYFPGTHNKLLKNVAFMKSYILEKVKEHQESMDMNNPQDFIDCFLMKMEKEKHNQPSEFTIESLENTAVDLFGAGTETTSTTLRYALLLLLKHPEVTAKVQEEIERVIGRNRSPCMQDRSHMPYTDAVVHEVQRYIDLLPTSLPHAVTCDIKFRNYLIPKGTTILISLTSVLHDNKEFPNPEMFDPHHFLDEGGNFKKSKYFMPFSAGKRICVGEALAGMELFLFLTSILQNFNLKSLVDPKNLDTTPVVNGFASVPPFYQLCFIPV
Sequence of Cytochrome P450 2C19 (P33261 whole entry): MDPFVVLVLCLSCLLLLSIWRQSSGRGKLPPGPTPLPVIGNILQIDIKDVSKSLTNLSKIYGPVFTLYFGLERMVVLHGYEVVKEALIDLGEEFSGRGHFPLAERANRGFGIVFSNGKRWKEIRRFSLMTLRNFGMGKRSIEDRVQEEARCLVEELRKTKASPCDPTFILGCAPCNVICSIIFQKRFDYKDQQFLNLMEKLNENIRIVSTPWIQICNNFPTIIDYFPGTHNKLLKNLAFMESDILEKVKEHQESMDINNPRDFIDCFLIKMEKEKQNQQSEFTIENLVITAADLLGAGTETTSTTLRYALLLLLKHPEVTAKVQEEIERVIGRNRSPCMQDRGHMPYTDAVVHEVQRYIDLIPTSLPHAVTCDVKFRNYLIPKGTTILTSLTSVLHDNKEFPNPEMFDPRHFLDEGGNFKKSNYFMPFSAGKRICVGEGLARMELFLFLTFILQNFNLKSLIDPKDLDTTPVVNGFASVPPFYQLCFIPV

As to `COc1ncc2nc(C)c(=O)n(-c3ccccc3)c2n1`, the figures for the AC50 in data set [1] (read-out: AC50) and in data set [2] were 39.8 µM (inconclusive) and 25.1 µM (inconclusive), respectively.
In the case of `CCCOc1ccc(C(=O)NC(=S)Nc2nc3ccc(C)cc3s2)cc1`, the AC50 in data set [1] (read-out: AC50) is 15.8 µM (inconclusive).
Take `COC(=O)c1scc(C)c1NC(=O)Cc1ccccc1`: in data set [2], the AC50 was 22.4 µM (inconclusive).
Consider `N#Cc1c(Cl)cccc1-n1ccnc1`, for which the AC50 is 7.08 µM (inconclusive) in data set [3] and 2.82 µM (inconclusive) in data set [4].
For the molecule `Cc1cc2c(cc1C)NC1=C(O)[C@@H](c3c[nH]c4ccc(COc5ccccc5)cc34)OC1=N2`, in data set [4], the AC50 is 7.94 µM (inconclusive).
Turning to `CCN1CCCC1CNC(=O)c1ccc(Sc2ccc(F)cc2)c([N+](=O)[O-])c1` (stereo unspecified), the EC50 in data set [5] was 0.879 µM (active); in data set [6], > 60 µM (inconclusive).
For the molecule `C#CCCCO/N=C1/C[C@@H](O)[C@@H](O)[C@@H]2[C@@H]3C(=O)N(C[C@@H]4CCCO4)C(=O)[C@H]3CC[C@H]12`, the AC50 in data set [2] is 6.31 µM (inconclusive).
With `O=[N+]([O-])c1ccc(C2=Nn3c(nnc3-c3ccc(Cl)cc3)SC2)o1`, the half-maximal activity concentration (AC50) in data set [3] was 5.01 µM (inconclusive); in data set [4] it was 7.94 µM (inconclusive).
As for `CC(C(=O)N1CCc2ccccc21)N1CCN(Cc2ccccc2)CC1` (stereo unspecified), the EC50 in data set [5] was 0.793 µM (active); in data set [6], > 60 µM (not active).
Regarding `COCCn1c(=O)c(-c2ccccc2)nc2cnc(OC)nc21`, the AC50 was 20 µM (inconclusive) in data set [4] and 25.1 µM (inconclusive) in data set [2].
With `COc1ccc(-c2cn3c([n+]2-c2ccccc2)SCC3)cc1`, the EC50 in data set [5] is 1.3 µM (active); in data set [6], > 60 µM (not active).
As to `O=C(N[C@@]1(C(=O)O)C[C@@H]1c1ccccc1)c1ccccc1`, in data set [1], the AC50 entry is “inconclusive”.
Regarding `Cn1c(=O)cnc2cnc(Oc3ccccc3)nc21`, the AC50 in data set [1] (read-out: AC50) is 39.8 µM (inconclusive).
In the case of `CCCC1(C(=O)OC)C=C2C(=C(c3ccccc3)C(=O)C2C)CN1` (stereo unspecified), the AC50 in data set [2] is 10 µM (inconclusive).
With `N#C/C(=C(/O)CN1CCCCC1)c1nc(-c2ccc(Cl)cc2)cs1`, the AC50 in data set [1] (read-out: AC50) and in data set [2] was 10 µM (inconclusive) throughout.
Consider `O=C(CN1CCCC1)N/N=C/c1ccc(-c2cccc(Cl)c2)o1`, for which the AC50 in data set [4] is 15.8 µM (inconclusive).
With `Cc1ccccc1C(=O)N1CCc2ccccc2C1`, the figures for the AC50 in data set [4] and in data set [2] were 5.62 µM (inconclusive) and 6.31 µM (inconclusive), respectively.
`Cc1ccc(-n2c(C)cc(C(=S)N3CCOCC3)c2C)cc1C`: the figures for the AC50 in data set [3] and in data set [2] were 22.4 µM (inconclusive) and 31.6 µM (inconclusive), respectively.
Take `CN(C)c1ncnc2ccc(-c3ccccc3C#N)cc12`: the AC50 in data set [2] is 1.58 µM (inconclusive).
On the same count and under the same terms, the value for `O=C1C2CCC(C(O)C2)N1Cc1ccccc1` (stereo unspecified) was 17.8 µM (inconclusive).
As for `O=C1Nc2ccccc2C(O)(C(=O)NCc2ccc3c(c2)OCO3)N1c1ccc(Cl)c(Cl)c1` (stereo unspecified), in data set [3], the AC50 was 1.12 µM (inconclusive).
With `CSc1ccccc1NC(=O)c1cc(-c2cccnc2)nc2ccc(Br)cc12`, the EC50 is 2 µM (active) in data set [5] and > 60 µM (not active) in data set [6].
For the molecule `CC#CCOC(=O)c1c(C)nc2sc3c(c2c1N)CC[C@@H](O)C3`, the AC50 in data set [3] was 31.6 µM (inconclusive); in data set [4] it was 15.8 µM (inconclusive).
Turning to `O=C(N/N=C/c1ccc(Cl)cc1Cl)c1cccc(F)c1`, the AC50 in data set [3] is 8.91 µM (inconclusive); in data set [2], 31.6 µM (inconclusive).
`O=C(O)/C=C\c1c[nH]cn1` [CIS-UROCANIC ACID]: the AC50 in data set [2] is 0.251 µM (inconclusive).
Consider `C=CCSc1ncccc1C(=O)NCc1ccc(C)cc1`, for which the concentration at half-maximal activity (AC50) in data set [4] was 12.6 µM (inconclusive).
As for `CCCCCC(=O)Nc1cc(S(=O)(=O)N2CCOCC2)ccc1N1CCN(C)CC1`, the EC50 in data set [5] was 0.813 µM (active); in data set [6], > 60 µM (not active).
On to `CCc1cc2c(nc1CC)CCN(CC/C(C)=N/OCC[C@@H]1C=C[C@H](OC(C)=O)[C@H](COC(C)=O)O1)C2`, for which the AC50 in data set [2] was 3.16 µM (inconclusive).
In the case of `O=C(CCN1CCCCC1)N1CCc2c([nH]c3ccccc23)[C@H]1c1cccnc1`, the values for the AC50 result in data set [1] and in data set [3] were “inconclusive” and 3.16 µM (inconclusive), respectively.
As for `O=c1c2ccccc2c(-c2ccc(Br)cc2)nn1Cc1ccccc1`, the AC50 was 5.62 µM (inconclusive) in data set [1] (read-out: AC50), 3.55 µM (inconclusive) in data set [4] and 25.1 µM (inconclusive) in data set [2].
For `Cc1cccc(NC(=O)Nc2ccncc2)c1`, the EC50 in data set [5] was 0.781 µM (active); in data set [6], > 60 µM (not active).
As for `c1ccc(Nc2cccc(Nc3ccccc3)c2)cc1`, the EC50 in data set [5] was 0.937 µM (active); in data set [6] it was > 60 µM (not active).
For the molecule `Nc1n[nH]c2ccccc12`, in data set [2], the half-maximal activity concentration (AC50) was 3.98 µM (inconclusive).
With `CN1CCN(c2ccccc2NC(=O)c2ccc(-c3ccc(Br)cc3)o2)CC1`, the EC50 is 2.18 µM (active) in data set [5] and 4.08 µM (active) in data set [6].
Consider `CCCC/C=C/C(NC(=O)c1ccco1)c1ccccc1` (stereo unspecified), for which the AC50 in data set [3] was 39.8 µM (inconclusive).
In the case of `Cc1onc(-c2ccccc2Cl)c1C(=O)NCC(=O)O`, the AC50 in data set [1] (read-out: AC50) is 39.8 µM (inconclusive).
Regarding `COc1ccc(-c2nc3cnc(N4CCN(C)CC4)nc3n(Cc3cccs3)c2=O)cc1`, in data set [1], the AC50 entry is given as “inconclusive”.
Regarding `COC(=O)[C@@]1(Cc2ccccc2)[C@H]2c3cc(C(=O)N(C)C)n(Cc4ccc(O)c(OC)c4)c3C[C@H]2CN1C(=O)c1ccccc1`, the AC50 in data set [3] is 31.6 µM (inconclusive).
For `CCCc1n[nH]c2c1C(c1ccc(OCCN3CCOCC3)c(OCC)c1)C(C#N)=C(N)O2` (stereo unspecified), in data set [7], the EC50 is 10 µM (active).
As to `O=C1CCC[C@@H]2Cc3[nH]c4c(Cl)ccc(Cl)c4c3[C@@H]3CCN1[C@H]23`, the figures for the EC50 in data set [5] and in data set [6] were 1.33 µM (active) and > 60 µM (not active), respectively.
Turning to `Cc1c(CCC(C)C)c(-n2ccnc2C)n2c(nc3ccccc32)c1C#N`, the AC50 was 3.98 µM (inconclusive) in data set [4] and 14.1 µM (inconclusive) in data set [2].
With `O=C(/C=C/c1cn(-c2ccccc2)nc1-c1cccc(Cl)c1)N1CCN(c2ccccn2)CC1`, the EC50 is 1.72 µM (active) in data set [5] and > 60 µM (not active) in data set [6].
The corresponding values for `COc1ccc(N2CCN(C(CNC(=O)C(=O)NCCCn3ccnc3)c3cccnc3)CC2)cc1` (stereo unspecified) are < 0.1 µM (active) and 10.4 µM (active).
On to `Cc1nc(C(=O)Nc2ccc(Cl)cc2)sc1C1(C)CC(c2cccc([N+](=O)[O-])c2)=NO1` (stereo unspecified), for which the EC50 in data set [5] is 0.545 µM (active); in data set [6], > 60 µM (not active).
Turning to `O=C(CSc1nc2ccccc2c2ccccc12)c1ccccc1`, the values for the AC50 in data set [1] (read-out: AC50) and in data set [2] were 6.31 µM (inconclusive) and 3.98 µM (inconclusive), respectively.
Regarding `CCN1CCN(C(c2ccccn2)c2c(NC(=O)c3ccccc3)sc(C)c2C)CC1` (stereo unspecified), the concentration at half-maximal activity (AC50) in data set [1] (read-out: AC50) was 17.8 µM (inconclusive).
With `O=C(O)C(=O)Cc1ccc2c(c1)OCO2`, the AC50 entry in data set [1] is “inconclusive”.
For the molecule `Cc1nn(Cc2ccc(C(=O)Nc3ccc(C(=O)OC(C)C)cc3)o2)c(C)c1Cl`, the results for the EC50 in data set [5] and in data set [6] were 2.86 µM (active) and > 60 µM (not active), respectively.
Consider `O=c1c(-c2ccc(Cl)cc2)nc2cnc(N3CCNCC3)nc2n1-c1ccccc1`, for which the figures for the AC50 in data set [4] and in data set [2] were 15.8 µM (inconclusive) and 12.6 µM (inconclusive), respectively.
On to `N#Cc1ccc(CN2CCCC3(CCNCC3)C2)cc1`, for which the AC50 in data set [3] was 20 µM (inconclusive).
Turning to `Cn1c(=O)c(-c2cccc(F)c2)nc2cncnc21`, the AC50 in data set [2] is 20 µM (inconclusive).
For `Clc1ccc(NC2=NCCCS2)cc1Cl`, the EC50 in data set [5] is 1.8 µM (active); in data set [6], > 60 µM (not active).
In the same order, the values of `COc1ccc(C(=O)c2ccc([N+](=O)[O-])cc2Cl)cc1` are 2.15 µM (active) and > 30 µM (not active).
As to `Cc1nc(-c2cccnc2)sc1C(N)=O`, the AC50 in data set [1] (read-out: AC50) was 5.01 µM (inconclusive); in data set [2], 28.2 µM (inconclusive).
For `COCCn1c(=O)cnc2cnc(Oc3cccc(Cl)c3)nc21`, the AC50 in data set [2] was 31.6 µM (inconclusive).

The values are drawn from ChEMBL document CHEMBL1201862, “PubChem BioAssay data set” (2004).
